Reference: patent US6676932B2, “Ultraviolet absorbent, photostabilizer, ultraviolet ray-absorbing composition, photostabilized composition and external preparation for skin” (Shiseido Co., Ltd., priority 2001, dated 2004)

Experiments:
Type in all cases: physicochemical
[1] = Dye stabilization effect under daylight exposure (Test Examples 6-91); parameters: key to Δ E: color difference ΔE in Lab vs. color before daylight exposure; key to Appearance (visual determination): ◯: no change; Δ: almost no change; x: change; details: photostabilizer 0.05 wt %, daylight exposure (80 MJ)
Description: For observation of the change of the appearance of each test sample (determination based on visual observation) and the measurement of color difference (ΔE) before and after daylight exposure (80 MJ), the test sample was prepared.
(§1) With a spectrophotometer, the color was measured on the Lab coordinate system, to calculate the color difference on the basis of the color before daylight exposure. More specifically, the color difference (ΔE) was calculated on the basis of the measured values (L1, a1, b1) before daylight exposure.

[2] = Stabilization effect on perfume under daylight exposure (Test Examples 92 to 181); parameters: key: ◯: no change; Δ: almost no change; x: change; details: daylight exposure (80 MJ)
Description: Each test sample was prepared for observation of the change of the odor of the test sample (determined by perfume coordinator) before and after daylight exposure (80 MJ).

[3] = Drug stabilization effect under daylight exposure (Test Examples 182 to 211); parameters: key to Appearance (visual determination): ◯: no change; Δ: almost no change; x: change; details: photostabilizer 0.05 wt %, daylight exposure (80 MJ); for Remaining ratio (%): liquid chromatography
Description: For observation of the change of the appearance of each test sample (determination based on visual observation) and the measurement of the remaining ratio by liquid chromatography before and after daylight exposure (80 MJ), the test sample was prepared.

[4] = Dye stabilization effect in blend with sequestering agents (Test Examples 212 to 275); details: daylight exposure (80 MJ)
Description: Each test sample was prepared for observation of the change of the appearance of each test sample (determined visually) and measurement of the color difference (ΔE) before and after daylight exposure (80 MJ).
as §1

[5] = dye Blue 1 (Brilliant Blue FCF) 0.0001 wt %
[6] = dye Green 3 (Fast Green FCF) 0.001 wt %
[7] = dye Red 227 (Acid Fuchsine D) 0.0001 wt %
[8] = dye Yellow 5 (Sunset Yellow FCF) 0.001 wt %
[9] = dyes Red 106 (Acid red) 0.00001 + Yellow 203 (Quinoline Yellow WS) 0.0001 wt %
[10] = dyes Red 213 (Rhodamine B) 0.00001 + Blue 1 (Brilliant Blue FCF) 0.00001 wt %
[11] = dyes Red 227 (Acid Fuchsine D) 0.0001 + Yellow 5 (Sunset Yellow FCF) 0.0001 wt %
[12] = dyes Red 401 (Violanin R) 0.0001 + Blue 1 (Brilliant Blue FCF) 0.00001 wt %
[13] = dyes Yellow 203 (Quinoline Yellow WS) 0.0001 + Yellow 5 (Sunset Yellow FCF) 0.0001 wt %
[14] = base perfume Muge, photostabilizer 0.05 wt %
[15] = natural perfume Jasmine oil, photostabilizer 0.05 wt %
[16] = synthetic perfume Rose oxide, photostabilizer 0.2 wt %
[17] = drug Dipotassium glycyrrhizinate 0.05 wt %
[18] = drug L-ascorbic acid 2-glucoside 2.0 wt %
[19] = drug dibutylhydroxytoluene 0.01 wt %
[20] = drug dl-α-tocopherol 2-L-ascorbic acid phosphate diester potassium salt 0.01 wt %
[21] = dye Green 3 (Fast Green FCF) 0.001, sequestering agent 0.1 alone, photostabilizer 0
[22] = dye Yellow 5 (Sunset Yellow FCF) 0.0001, sequestering agent 0.03 alone, photostabilizer 0

Compound: COc1ccc(C(=O)c2ccccc2)c(O)c1 [2-Hydroxy-4-methoxybenzophenone, reference compound]
- Appearance (visual determination) [1, 5]: Δ
- Δ E [1, 5]: 1.76
- Appearance (visual determination) [1, 6]: Δ
- Δ E [1, 6]: 0.75
- Appearance (visual determination) [1, 7]: Δ
- Δ E [1, 7]: 0.71
- Appearance (visual determination) [1, 8]: Δ
- Δ E [1, 8]: 0.82
- Appearance (visual determination) [1, 9]: Δ
- Δ E [1, 9]: 1.11
- Appearance (visual determination) [1, 10]: Δ
- Δ E [1, 10]: 1.26
- Appearance (visual determination) [1, 11]: Δ
- Δ E [1, 11]: 0.88
- Appearance (visual determination) [1, 12]: Δ
- Δ E [1, 12]: 0.82
- Appearance (visual determination) [1, 13]: ◯
- Δ E [1, 13]: 0.52
- odor determination ([2]; base perfume Fruity, photostabilizer 0.1 wt %): Δ
- odor determination [2, 14]: Δ
- odor determination ([2]; base perfume Rose, photostabilizer 0.05 wt %): Δ
- odor determination ([2]; base perfume Spicy, photostabilizer 0.2 wt %): Δ
- odor determination ([2]; base perfume Woody, photostabilizer 0.1 wt %): Δ
- odor determination [2, 15]: Δ
- odor determination ([2]; natural perfume Lavender oil, photostabilizer 0.1 wt %): Δ
- odor determination ([2]; natural perfume Nelori oil, photostabilizer 0.1 wt %): Δ
- odor determination ([2]; natural perfume Rose oil, photostabilizer 0.05 wt %): Δ
- odor determination ([2]; natural perfume Ylang ylang oil, photostabilizer 0.2 wt %): Δ
- odor determination ([2]; synthetic perfume Citral, photostabilizer 0.1 wt %): Δ
- odor determination ([2]; synthetic perfume Limonene oil, photostabilizer 0.05 wt %): Δ
- odor determination ([2]; synthetic perfume Linalool, photostabilizer 0.05 wt %): Δ
- odor determination ([2]; synthetic perfume Linalyl acetate, photostabilizer 0.1 wt %): Δ
- odor determination [2, 16]: Δ
- Appearance (visual determination) [3, 17]: Δ
- Remaining ratio (%) [3, 17]: 97.8%
- Appearance (visual determination) [3, 18]: Δ
- Remaining ratio (%) [3, 18]: 97.8%
- Appearance (visual determination) [3, 19]: Δ
- Remaining ratio (%) [3, 19]: 95.2%
- Appearance (visual determination) [3, 20]: Δ
- Remaining ratio (%) [3, 20]: 95.4%
- Appearance (visual determination) ([3]; drug salicylic acid 0.1 wt %): Δ
- Remaining ratio (%) ([3]; drug salicylic acid 0.1 wt %): 98.2%

Compound: COc1cc(O)c(C(=O)c2ccccc2)cc1S(=O)(=O)[O-].[Na+] [2-Hydroxy-4-methoxybenzophenone-5-sulfonate sodium, reference compound]
- Appearance (visual determination) [1, 5]: Δ
- Δ E [1, 5]: 1.67
- Appearance (visual determination) [1, 6]: Δ
- Δ E [1, 6]: 0.74
- Appearance (visual determination) [1, 7]: Δ
- Δ E [1, 7]: 0.80
- Appearance (visual determination) [1, 8]: Δ
- Δ E [1, 8]: 0.78

Compound: OCCNc1ccc(NCCO)nn1 [3,6-Bis(2-hydroxyethylamino) pyridazine]
- Δ E ([4]; dyes Yellow 203 (Quinoline Yellow WS) 0.0001 + Yellow 5 (Sunset Yellow FCF) 0.0001, no sequestering agent, photostabilizer blend amount 0.02): 0.88
- Δ E ([4]; dyes Yellow 203 (Quinoline Yellow WS) 0.0001 + Yellow 5 (Sunset Yellow FCF) 0.0001, with sodium metaphosphate 0.01, photostabilizer blend amount 0.02): 0.55

Compound: Oc1nncc(N2CCCCC2)c1N1CCCCC1 [4,5-Dipipendino-3-hydroxypyridazine]
- Δ E ([4]; dyes Red 227 (Acid Fuchsine D) 0.0001 + Yellow 5 (Sunset Yellow FCF) 0.0001, no sequestering agent, photostabilizer blend amount 0.01): 1.12
- Δ E ([4]; dyes Red 227 (Acid Fuchsine D) 0.0001 + Yellow 5 (Sunset Yellow FCF) 0.0001, with ethylenediaminetetraacetate trisodium 0.02, photostabilizer blend amount 0.01): 0.68

Compound: Oc1nncc(N2CCCCC2)c1N1CCCCC1 [4,5-Dipiperidino-33-hydroxy pyridazine]
- Δ E ([4]; dyes Red 401 (Violanin R) 0.0001 + Green 3 (Fast Green FCF) 0.00001, no sequestering agent, photostabilizer blend amount 0.02): 1.52
- Δ E ([4]; dyes Red 401 (Violanin R) 0.0001 + Green 3 (Fast Green FCF) 0.00001, with sodium metaphosphate 0.03, photostabilizer blend amount 0.02): 0.77

Compound: OCCN(CCO)c1cnnc(O)c1 [5-bis(2-hydroxyethyl)amino-3-hydroxypyridazine]
- Appearance (visual determination) [1, 5]: ◯
- Δ E [1, 5]: 1.29
- Appearance (visual determination) [1, 6]: ◯
- Δ E [1, 6]: 0.62
- Appearance (visual determination) [1, 7]: ◯
- Δ E [1, 7]: 0.55
- Appearance (visual determination) [1, 8]: ◯
- Δ E [1, 8]: 0.65
- Appearance (visual determination) [1, 9]: ◯
- Δ E [1, 9]: 0.85
- odor determination [2, 14]: ◯
- odor determination [2, 15]: ◯
- odor determination [2, 16]: ◯

Compound: O=C([O-])CN(CCN(CC(=O)[O-])CC(=O)O)CC(=O)[O-].[Na+].[Na+].[Na+] [ethylenediaminetetraacetate trisodium]
- Δ E ([4]; dye Blue 1 (Brilliant Blue FCF) 0.001, sequestering agent 0.05 alone, photostabilizer 0): 8.32
- Δ E [4, 21]: 1.75
- Δ E ([4]; dye Red 227 (Acid Fuchsine D) 0.0001, sequestering agent 0.02 alone, photostabilizer 0): 1.40
- Δ E [4, 22]: 1.72
- Δ E ([4]; dyes Red 106 (Acid Red) 0.00001 + Yellow 5 (Sunset Yellow FCF) 0.0001, sequestering agent blend amount 0.02, photostabilizer 0): 4.26
- Δ E ([4]; dyes Red 227 (Acid Fuchsine D) 0.0001 + Yellow 5 (Sunset Yellow FCF) 0.0001, sequestering agent blend amount 0.02, photostabilizer 0): 1.55
- Δ E ([4]; dyes Red 401 (Violanin R) 0.0001 + Blue 1 (Brilliant Blue FCF) 0.00001, sequestering agent blend amount 0.03, photostabilizer 0): 3.02

Compound: CCCCC(CC)COC(=O)/C=C/c1ccc(OC)cc1 (stereo not drawn) [p-Methoxycinnamate octyl, reference compound]
- Appearance (visual determination) [1, 5]: x
- Δ E [1, 5]: 5.23
- Appearance (visual determination) [1, 6]: x
- Δ E [1, 6]: 1.64
- Appearance (visual determination) [1, 7]: x
- Δ E [1, 7]: 1.22
- Appearance (visual determination) [1, 8]: x
- Δ E [1, 8]: 1.56

Compound: sodium polyphosphate
- Δ E [4, 21]: 1.75
- Δ E [4, 22]: 1.70
